US20220401514A1, “ANTIMICROBIAL, BACTERIOPHAGE-DERIVED POLYPEPTIDES AND THEIR USE AGAINST GRAM-NEGATIVE AND ACID-FAST BACTERIA” (CONTRAFECT CORPORATION, priority 2019, published 2022)

Assays:
[1] = system: P. aeruginosa strain PAO1; assay: MIC against PAO1 in Mueller-Hinton broth with 50% human plasma or human serum; type: cell-based, Pseudomonas aeruginosa; settings: PAO1; for Minimal inhibitory concentration, Human Plasma: Mueller-Hinton broth with 50% human plasma; for Minimal inhibitory concentration, Human Serum: Mueller-Hinton broth with human serum
Pseudomonas aeruginosa = assay: microbe, parasite or virus in culture; type: cell-based; settings: P. aeruginosa (ATCC 27853); control agents of Table 8
Enterobacter cloacae = assay: microbe, parasite or virus in culture; type: cell-based
How it was run: (§1)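 CAA + human serum as test medium; MIC read as lowest peptide concentration inhibiting growth.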

Escherichia coli = assay: microbe, parasite or virus in culture; type: cell-based; settings: for MIC (in brackets beside MBEC): control agents of Table 8
How it was run: as §1

Acinetobacter baumannii = assay: microbe, parasite or virus in culture; type: cell-based
[2] = system: eight different strains of five species of Gram-negative bacteria; assay: MBEC in eight strains of five species of Gram-negative bacteria; type: cell-based; settings: 24 h biofilm in LB, 16 h treatment
Description: Determination of Minimal Biofilm Eradicating Concentrations (MBEC). […] The OD600 of extracted crystal violet was determined. The MBEC value of each sample was determined as the minimum drug concentration required to remove >95% of biofilm biomass as assessed by crystal violet quantitation (in comparison to untreated controls).
MBEC values were likewise determined for Chp2, Chp2-M1, and Chp10-M1 in eight different strains of five species of Gram-negative bacteria. […] The films were then washed and stained with crystal violet to visualize the MBEC.

LPS = assay: Endotoxin neutralization, limulus amoebocyte lysate (LAL) enzyme assay, LPS binding; type: biochemical; settings: LPS 0.8 EU/mL; for LPS binding: […]-64 μg/mL, 24° C., 1 hour
Description: CHEM. […] The standard reference samples contained only LPS dissolved in pyrogen-free water. Solutions were mixed well and incubated at 24° C. for 1 hour, and the manufacturers' test procedure for quantitative detection of endotoxins was followed.

Klebsiella pneumoniae [3] = assay: microbe, parasite or virus in culture; type: cell-based; settings: control agents of Table 8
[4] = system: carbapenem-resistant P. aeruginosa clinical isolate CFS-1292; assay: MIC by modified CLSI broth microdilution against P. aeruginosa CFS-1292 (CAA, CAA + human serum); type: cell-based, Pseudomonas aeruginosa
Klebsiella pneumoniae [5] = type: cell-based; settings: Klebsiella pneumoniae HM-44; CAA supplemented with human serum
Description: Determination of Minimal Inhibitory Concentrations (MIC).
Additional MIC testing was performed for several peptides against the ESKAPE pathogens Escherichia coli, Enterobacter cloacae, Klebsiella pneumoniae, and Acinetobacter baumannii, in CAA supplemented with human serum (Table D).

M. smegmatis = assay: 45 hr MIC against M. smegmatis (NTM), Mueller Hinton broth; type: cell-based, Mycobacterium smegmatis; settings: M. smegmatis MC^2 155, Run #1
[6] = system: A. baumannii strain BAA-747 persister cells; assay: Activity against persister cells, A. baumannii; type: cell-based, Acinetobacter baumannii; settings: A. baumannii BAA-747 persister cells
[7] = system: P. aeruginosa strain PA20 persister cells; assay: Activity against persister cells, P. aeruginosa; type: cell-based, Pseudomonas aeruginosa; settings: P. aeruginosa PA20 persister cells
[8] = system: Stenotrophomonas-containing biofilm on explanted hemodialysis catheters; assay: Antibiofilm activity in explanted hemodialysis catheters; type: cell-based, Stenotrophomonas spp.
Description: The explanted hemodialysis catheters were cut into equal length segments and bisected to expose the lumen.
The samples were treated for 4 hours at 37° C. before rinsing with Lactated Ringer's solution.
Three additional infected hemodialysis catheter samples were removed from two patients (one catheter from a first patient and two catheters from a second patient). […] The samples were incubated at 37° C. for 4 hours.

[9] = peptide concentration 0.5 μg/mL
[10] = log10 CFU/mL reduction as compared to buffer

## LL-37 [reference compound]
[1]
  Minimal inhibitory concentration, Human Plasma: >64 µg/mL
  Minimal inhibitory concentration, Human Serum: >64 µg/mL
Pseudomonas aeruginosa
  MIC (in brackets beside MBEC): (16) μg/mL
Enterobacter cloacae; E. cloacae (CCUG 63317), control agents of Table 8
  MIC (in brackets beside MBEC): (16) μg/mL
Escherichia coli; E. coli (ATCC 25922)
  MIC (in brackets beside MBEC): (16) μg/mL
Escherichia coli; E. coli (ATCC 35329)
  MIC (in brackets beside MBEC): (16) μg/mL
Escherichia coli; E. coli (EC2)
  MIC (in brackets beside MBEC): (16) μg/mL
Acinetobacter baumannii; A. baumanni (ATCC BAA-747), control agents of Table 8
  MIC (in brackets beside MBEC): (16) μg/mL
[2]; A. baumanni (ATCC BAA-747)
  MBEC: 0.25 µg/mL
[2]; E. cloacae (CCUG 63317)
  MBEC: 8 µg/mL
[2]; E. coli (ATCC 25922)
  MBEC: 16 µg/mL
[2]; E. coli (ATCC 35329)
  MBEC: 16 µg/mL
[2]; E. coli (EC2)
  MBEC: 8 µg/mL
[2]; K. pneumoniae (ATCC 700603)
  MBEC: 32 µg/mL
[2]; K. pneumoniae (KP1)
  MBEC: 16 µg/mL
[2]; P. aeruginosa (ATCC 27853)
  MBEC: 8 µg/mL
LPS
  LPS binding: dose-dependent increases in LPS binding
LPS; [9]
  % LPS Bound: 90.6%
LPS; peptide concentration 1 μg/mL
  % LPS Bound: 92.2%
LPS; peptide concentration 2 μg/mL
  % LPS Bound: 92.9%
LPS; peptide concentration 4 μg/mL
  % LPS Bound: 92.3%
LPS; peptide concentration 8 μg/mL
  % LPS Bound: 92.4%
LPS; peptide concentration 16 μg/mL
  % LPS Bound: 92.1%
LPS; peptide concentration 32 μg/mL
  % LPS Bound: 87.3%
LPS; peptide concentration 64 μg/mL
  % LPS Bound: 75.4%
Klebsiella pneumoniae [3]; K. pneumoniae (ATCC 700603)
  MIC (in brackets beside MBEC): (16) μg/mL
Klebsiella pneumoniae [3]; K. pneumoniae (KP1)
  MIC (in brackets beside MBEC): (16) μg/mL

## MAEQYELSQEQSEQLFSETALQMHEQNELQEIMQGGIEF [Chp5]
[4]; 100% CAA, 1st run or single value
  MIC (μg/mL) against CFS-1292 in 100% CAA (1st run/2nd run): >32 µg/mL
[4]; CAA + […] human serum
  MIC (μg/mL) against CFS-1292 in CAA + […] human serum: >32 µg/mL
Enterobacter cloacae; Enterobacter cloacae ATCC 13047, CAA supplemented with human serum
  MIC: >32 µg/mL
Escherichia coli; Escherichia coli ATCC 25922, CAA supplemented with human serum
  MIC: 4 µg/mL
Klebsiella pneumoniae [5]
  MIC: 8 µg/mL
Acinetobacter baumannii; Acinetobacter baumannii ATCC BAA 747, CAA supplemented with human serum
  MIC: >32 µg/mL
M. smegmatis
  45 hr MIC: >64 µg/mL
LPS
  LPS binding: does not bind LPS
LPS; [9]
  % LPS Bound: 0.1%
LPS; peptide concentration 1 μg/mL
  % LPS Bound: 0.1%
LPS; peptide concentration 2 μg/mL
  % LPS Bound: 0.1%
LPS; peptide concentration 4 μg/mL
  % LPS Bound: 0.1%
LPS; peptide concentration 8 μg/mL
  % LPS Bound: 5.4%
LPS; peptide concentration 16 μg/mL
  % LPS Bound: 0.1%
LPS; peptide concentration 32 μg/mL
  % LPS Bound: 0.1%
LPS; peptide concentration 64 μg/mL
  % LPS Bound: 0.9%
[6]; 1 hour at 37° C., Run #1, limit of detection 1.6-log10 CFU/mL
  MIC Log10 (CFU/mL) Run #1: 4.1 Log10 (CFU/mL)
[6]; 1 hour at 37° C., Run #2, limit of detection 1.6-log10 CFU/mL
  MIC Log10 (CFU/mL) Run #2: 5.1 Log10 (CFU/mL)
[6]; 1 hour at 37° C., Run #3, limit of detection 1.6-log10 CFU/mL
  MIC Log10 (CFU/mL) Run #3: 4.5 Log10 (CFU/mL)
[6]; average of 3 runs
  MIC Log10 (CFU/mL) Average: 4.6 Log10 (CFU/mL)
[6]; [10]
  Delta Log: 0.3
[7]; Run #1, limit of detection 2-log10 CFU/mL
  Viable persister count after treatment (log10 CFU/mL): 4.4 Log10 (CFU/mL)
[7]; Run #2, limit of detection 2-log10 CFU/mL
  Viable persister count after treatment (log10 CFU/mL): 4.3 Log10 (CFU/mL)
[7]; Run #3, limit of detection 2-log10 CFU/mL
  Viable persister count after treatment (log10 CFU/mL): 3.1 Log10 (CFU/mL)
[7]; average of 3 runs
  Viable persister count after treatment (log10 CFU/mL): 3.9 Log10 (CFU/mL)
[7]; [10]
  Delta Log: 0.5

## PGLa
[1]
  Minimal inhibitory concentration, Human Plasma: >64 µg/mL
  Minimal inhibitory concentration, Human Serum: >64 µg/mL

## Pediocin (KYYGNGVTCGKHSCSVDWGKATTCIINNGAMAWATGGHQGNHKC; Bacteriocin pediocin PA-1; UniProt P29430 19-62, looked up)
[1]
  Minimal inhibitory concentration, Human Plasma: >64 µg/mL
  Minimal inhibitory concentration, Human Serum: >64 µg/mL

## Protegrin 1
[1]
  Minimal inhibitory concentration, Human Plasma: 1 µg/mL
  Minimal inhibitory concentration, Human Serum: 4 µg/mL

## daptomycin
[8]; first catheter sample, 4 hours at 37° C., Chp2-M1 10 μg/mL, CF-301 and daptomycin 1 μg/mL
  eradication of catheter biofilm: did not
[8]; treatment at 1 μg/mL
  Log10 CFU/g for Catheter Sample #2 enumerated after 24 hours of incubation at 37 °C.: 3.72 Log10 CFU/g
  Log10 CFU/g for Catheter Sample #3 enumerated after 24 hours of incubation at 37 °C.: 4.15 Log10 CFU/g
[8]; treatment at 1 μg/mL, 4 hours at 37° C.
  Log10 CFU/g for Catheter Sample #1 (enumerated after 18 hours of incubation at 37 °C.): 3.66 Log10 CFU/g
